In PubChem BioAssay (NCI):
“And” between values parts separate entries of the source, which are not always exact repeats. Equal values may be shown once.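 Grown in 96-well plates, cells were treated for 48 hours with each compound at five concentrations. Insufficient inhibition: endpoint recorded as highest concentration tested. GI50 = concentration required for 50% inhibition of growth. TGI denotes the concentration required for complete inhibition of growth.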

Key:
Test in all cases: NCI tumour cell line growth inhibition, 48 h
OVCAR-5 ovarian = test system: OVCAR-5 ovarian
HCT-15 colon = test system: HCT-15 colon
RPMI-8226 leukemia = test system: RPMI-8226 leukemia
SN12C renal = test system: SN12C renal
MCF7 breast = test system: MCF7 breast
SK-MEL-28 melanoma = test system: SK-MEL-28 melanoma
ACHN renal = test system: ACHN renal
DU-145 prostate = test system: DU-145 prostate
NCI-H522 lung = test system: NCI-H522 lung
UACC-257 melanoma = test system: UACC-257 melanoma

SMILES	TGI (OVCAR-5 ovarian)	TGI (HCT-15 colon)	TGI (RPMI-8226 leukemia)	TGI (SN12C renal)	TGI (MCF7 breast)	TGI (SK-MEL-28 melanoma)	TGI (ACHN renal)	TGI (DU-145 prostate)	TGI (NCI-H522 lung)	TGI (UACC-257 melanoma)	GI50 (OVCAR-5 ovarian)	GI50 (HCT-15 colon)	GI50 (RPMI-8226 leukemia)	GI50 (SN12C renal)	GI50 (MCF7 breast)	GI50 (SK-MEL-28 melanoma)	GI50 (ACHN renal)	GI50 (DU-145 prostate)	GI50 (UACC-257 melanoma)
COc1ccc(C[C@H]2COC(=O)[C@@H]2Cc2ccc(Br)cc2)cc1OC	> 100 µM	> 100 µM	> 100 µM	> 100 µM	> 65.4 µM	> 100 µM	> 100 µM	> 84.3 µM	> 71.1 µM	74.6 µM	–	–	–	–	–	–	–	–	–
O=C1CSC(c2ccccc2)N1c1ccc(-c2ccc(-n3c(-c4ccccc4)nc4ccccc4c3=O)cc2)cc1 (centres undefined)	> 100 µM	> 100 µM	> 100 µM	> 100 µM	> 100 µM	> 100 µM	> 100 µM	> 100 µM	> 100 µM	> 100 µM	–	–	–	–	–	–	–	–	–
CN1N=C(c2ccncc2)OC1c1cccc(F)c1 (centres undefined)	> 100 µM	> 100 µM	> 100 µM	> 100 µM	> 100 µM	> 100 µM	> 100 µM	> 100 µM	> 100 µM	> 100 µM	–	–	–	–	–	–	–	–	–
CCCCCCCCCCCCCCCCCCN(C)CC(COC)OP(=O)([O-])OCC[N+](C)(C)C (centres undefined)	5.95 µM	13.6 µM	3.14 µM	14.6 µM	14.8 µM	31.2 µM	15.6 µM	5.13 µM	4.22 µM	22.7 µM	–	–	–	–	–	–	–	–	–
CC(=Nc1ccc(Cl)cc1)c1ccncc1	> 100 µM	> 100 µM	> 100 µM	> 100 µM	> 100 µM	> 100 µM	> 100 µM	> 100 µM	> 100 µM	> 100 µM	–	–	–	–	–	–	–	–	–
CC(C)=CCC/C(C)=C/Cc1c2c(c3oc(-c4ccc(O)c(O)c4)c(O)c(=O)c3c1O)C=CC(C)(C)O2	15.1 µM	8.39 µM	9.93 µM	14.5 µM	11.4 µM	10.8 µM	7.83 µM	8.59 µM	2.9 µM	11.2 µM	–	–	–	–	–	–	–	–	–
O=C(Nn1c(-c2ccccc2)nc2ccccc2c1=O)c1cccc([N+](=O)[O-])c1	> 100 µM	> 100 µM	> 100 µM	> 100 µM	> 100 µM	> 100 µM	> 100 µM	> 100 µM	> 100 µM	> 100 µM	–	–	–	–	–	–	–	–	–
COc1ccc(COCC[C@H](C)OC2OC(CO[Si](C)(C)C(C)(C)C)C(O)C(O)C2O)cc1 (some centres undefined)	> 100 µM	> 100 µM	> 100 µM	> 100 µM	> 100 µM	> 100 µM	> 100 µM	> 100 µM	> 100 µM	> 100 µM	–	–	–	–	–	–	–	–	–
N#Cc1c(C#N)c(SSc2c(C#N)c(C#N)c(N)n2-c2cccc3ccccc23)n(-c2cccc3ccccc23)c1N	49.9 µM	4.01 µM	> 100 µM	34.8 µM	> 100 µM	> 100 µM	13.1 µM	47.6 µM	3.15 µM	37.6 µM	–	–	–	–	–	–	–	–	–
COc1ccc2nc3cccc([N+](=O)[O-])c3c(NCCC(=O)O)c2c1	> 10 µM	> 10 µM	> 10 µM	> 10 µM	> 10 µM	> 10 µM	> 10 µM	> 10 µM	> 10 µM	> 10 µM	–	–	–	–	–	–	–	–	–
Cc1csc2nc(-c3cc([N+](=O)[O-])c(Cl)cc3Cl)c(/C=N/N=C(N)N)n12	49.4 µM	45.2 µM	56.5 µM	29.8 µM	37.5 µM	31.1 µM	30.9 µM	32.3 µM	29.4 µM	32.8 µM	–	–	–	–	–	–	–	–	–
COc1cccc(CCn2c(N)c(-c3cc(Cl)cc(Cl)c3)c3ccc([N+](=O)[O-])cc3c2=O)c1	> 100 µM	> 44.5 µM	3.02 µM	> 86.7 µM	89.2 µM	> 100 µM	22.5 µM	> 25.3 µM	> 26.6 µM	24.4 µM	–	–	–	–	–	–	–	–	–
CN(C)c1n2c3ccc([N+](=O)[O-])cc3n3c(N(C)C)[n+]4ccccc4c3c2c2cccc[n+]12	> 100 µM	> 100 µM	> 100 µM	> 100 µM	> 100 µM	> 100 µM	> 100 µM	> 100 µM	> 100 µM	> 100 µM	–	–	–	–	–	–	–	–	–
CCCCCCC(=O)OC[n+]1ccc(-c2c(COC(=O)NC(C)C)c(COC(=O)NC(C)C)c3n2CCC3)cc1	> 100 µM	> 100 µM	98.9 µM	> 100 µM	> 100 µM	> 100 µM	> 100 µM	> 100 µM	> 100 µM	> 100 µM	–	–	–	–	–	–	–	–	–
Nc1c(F)c(F)c2c(c1F)N(CCCCCl)c1ccccc1S2	> 100 µM	> 100 µM	> 100 µM	> 100 µM	> 100 µM	> 100 µM	> 100 µM	> 100 µM	> 100 µM	> 100 µM	–	–	–	–	–	–	–	–	–
CCOC(=O)/C(=C\c1c[nH]c2ccccc12)P(=O)(OCC)OCC	87.9 µM	72.6 µM	76.8 µM	> 100 µM	> 100 µM	94.3 µM	> 100 µM	> 100 µM	89.9 µM	> 100 µM	–	–	–	–	–	–	–	–	–
Nc1c(S(=O)(=O)O)cc(S(=O)(=O)O)c2ccc(N=Nc3ccccc3)c(O)c12	> 100 µM	> 100 µM	> 100 µM	> 100 µM	> 100 µM	> 100 µM	> 100 µM	> 100 µM	> 100 µM	> 100 µM	–	–	–	–	–	–	–	–	–

SMILES	TGI (OVCAR-5 ovarian)	TGI (HCT-15 colon)	TGI (RPMI-8226 leukemia)	TGI (SN12C renal)	TGI (MCF7 breast)	TGI (SK-MEL-28 melanoma)	TGI (ACHN renal)	TGI (DU-145 prostate)	TGI (NCI-H522 lung)	TGI (UACC-257 melanoma)	GI50 (OVCAR-5 ovarian)	GI50 (HCT-15 colon)	GI50 (RPMI-8226 leukemia)	GI50 (SN12C renal)	GI50 (MCF7 breast)	GI50 (SK-MEL-28 melanoma)	GI50 (ACHN renal)	GI50 (DU-145 prostate)	GI50 (UACC-257 melanoma)
Cc1cc(-c2nc3cc(F)ccc3s2)ccc1N	> 100 µM	> 100 µM	> 100 µM	> 100 µM	2.72 µM	> 100 µM	> 87.3 µM	> 92.1 µM	> 100 µM	> 69.9 µM	–	–	–	–	–	–	–	–	–
CSC12c3cc(C)n(-c4ccc(I)cc4)c3CC(C)(C)CN1C(=O)C2Oc1ccccc1 (centres undefined)	> 100 µM	> 100 µM	> 100 µM	> 100 µM	> 100 µM	> 100 µM	> 100 µM	> 100 µM	> 100 µM	> 100 µM	–	–	–	–	–	–	–	–	–
COc1ccccc1N1CCN(S(=O)(=O)c2ccc(Cl)cc2)C1=N	> 100 µM	> 100 µM	> 100 µM	> 100 µM	> 100 µM	> 100 µM	> 100 µM	> 100 µM	> 100 µM	> 100 µM	–	–	–	–	–	–	–	–	–
O=C1c2ccccc2C(=O)c2c1oc1cc(O)c(Cl)cc21	23.9 µM	17.8 µM	55.3 µM	22.5 µM	25.2 µM	7.62 µM	17 µM	13.5 µM	26.9 µM	7.78 µM	–	–	–	–	–	–	–	–	–
C/C(=C\[Si](C)(C)c1ccco1)C(C)(O)[C@H](C)O (some centres undefined)	> 100 µM	> 100 µM	> 100 µM	> 100 µM	> 100 µM	> 100 µM	> 100 µM	> 100 µM	74.4 µM	96.3 µM	–	–	–	–	–	–	–	–	–
Nc1ccc(Oc2ccc(C34CC5C6CC7(c8ccc(Oc9ccc(N)cc9)cc8)CC5C(C3)C(C7)C6C4)cc2)cc1	> 100 µM	> 100 µM	> 100 µM	> 100 µM	> 100 µM	> 100 µM	> 100 µM	> 100 µM	> 100 µM	> 100 µM	–	–	–	–	–	–	–	–	–
c1ccc2c(c1)CCN1CCc3ccccc3C1C2 (centres undefined)	> 100 µM	> 100 µM	> 100 µM	> 100 µM	> 100 µM	> 100 µM	> 100 µM	> 100 µM	> 100 µM	> 100 µM	–	–	–	–	–	–	–	–	–
N#CCCC1(CCC#N)S(=O)(=O)OCCOS1(=O)=O	> 100 µM	> 100 µM	> 100 µM	> 100 µM	> 100 µM	> 100 µM	> 100 µM	> 100 µM	> 100 µM	> 100 µM	–	–	–	–	–	–	–	–	–
CNC(=O)O/N=C1\N(C)CN(c2ccccc2)C12CCN(CCCC(=O)c1ccc(F)cc1)CC2	> 100 µM	> 100 µM	> 100 µM	> 100 µM	> 100 µM	> 100 µM	> 100 µM	> 100 µM	> 100 µM	35.4 µM	–	–	–	–	–	–	–	–	–
NC(=O)C1=C(O)[C@@]2(O)C(=O)C3=C(O)c4c(O)cccc4CC3C[C@H]2CC1=O (some centres undefined)	12.3 µM	6.21 µM	6.12 µM	14.5 µM	> 49.9 µM	22.8 µM	19.5 µM	18.6 µM	7.72 µM	28.6 µM	–	–	–	–	–	–	–	–	–
CC1(C=O)CC(CCc2ccccc2)NC1Cc1ccc(O)cc1 (centres undefined)	31.5 µM	43.3 µM	40.7 µM	31.6 µM	27.1 µM	54 µM	28.6 µM	33.4 µM	35 µM	29.6 µM	–	–	–	–	–	–	–	–	–
CCOC(=O)/C=C(/C(=O)OCC)n1ccc(=O)n(Cc2cn(CCCCOC(C)=O)nn2)c1=O	> 100 µM	> 100 µM	> 100 µM	> 100 µM	> 100 µM	> 100 µM	> 100 µM	> 100 µM	29.3 µM	> 100 µM	–	–	–	–	–	–	–	–	–
COC1(OC)CCN(Cc2ccccc2)C1=O	31.8 µM	38.6 µM	42.8 µM	22.1 µM	25.3 µM	23.3 µM	19.7 µM	29.2 µM	> 100 µM	28.6 µM	–	–	–	–	–	–	–	–	–
COC(=O)CN1Cc2cc(C)cc(c2O)CN(CC(=O)OC)Cc2cc(C)cc(c2O)CN(CC(=O)OC)Cc2cc(C)cc(c2O)CN(CC(=O)OC)Cc2cc(C)cc(c2O)C1	50 µM and > 100 µM	50 µM and > 100 µM	50 µM and > 100 µM	50 µM and > 100 µM	50 µM and > 100 µM	50 µM and > 100 µM	50 µM and > 100 µM	50 µM and > 100 µM	> 100 µM	50 µM and > 100 µM	5.26 µM	25 µM	87.6 µM	51.6 µM	39.9 µM	27.9 µM	34.6 µM	33.3 µM	50.4 µM
CC(C)(C)OC(=O)N(O)CCCn1cnc2c(NC3CC3)ncnc21	> 100 µM	> 100 µM	> 100 µM	> 100 µM	> 100 µM	> 100 µM	> 100 µM	> 100 µM	> 100 µM	> 100 µM	–	–	–	–	–	–	–	–	–
CN(C)CCC(=O)[C@@]1(O)CC[C@H]2[C@@H]3CC=C4C[C@@H](O)CC[C@]4(C)[C@H]3CC[C@@]21C	> 100 µM	45.1 µM	7.01 µM	32.2 µM	16.8 µM	33.2 µM	29.5 µM	19.9 µM	25.3 µM	26.1 µM	–	–	–	–	–	–	–	–	–
CC(=O)N1C(c2[nH]c3ccccc3c2Cc2ccccc2)CCN1c1ccccc1 (centres undefined)	> 10 µM	> 10 µM	> 10 µM	> 10 µM	> 10 µM	> 10 µM	> 10 µM	> 10 µM	> 10 µM	> 10 µM	–	–	–	–	–	–	–	–	–
